Test results: US20230277527A1, “ROR-GAMMA MODULATORS” (Escalier Biosciences B.V., priority 2016, published 2023)

Biological target: RORγt (Homo sapiens (Human), UniProt P51449)
Test: RORγt Gal fusion assay (Gal4 ligand binding reporter assay)
Assay type: cell-based
Details: RORγt inverse agonists
Description: Human RORγ ligand binding assay was performed in 96-well format. The N-terminal DNA binding domains (DBD) of the native RORγ and RORγt receptors have been substituted with that of the yeast GAL4-DBD and RORγ is expressed constitutively in the cell line. Both agonist and inverse agonist activity can be detected. 10 mM compound stocks were diluted serially 1:3 with DMSO and further diluted with provided media to generate 10 titration points from 60 μM to 3 nM. These treatment conditions were added to the plates as 2× media in 100 μL volume. Each plate includes a positive control with 10 titration points as well as 6 negative control wells with vehicle only. Reporter cells were rapidly thawed and added to the plates in 100 μL volume. The plates were incubated for 24 hrs in a 37° C. humidified 5% CO2 incubator. Media was removed before the addition of room temperature Detection Substrate. After 5 minute incubation, the luminescence was quantified on a luminescence plate reader.

Sequence of RORγt (P51449 269-508): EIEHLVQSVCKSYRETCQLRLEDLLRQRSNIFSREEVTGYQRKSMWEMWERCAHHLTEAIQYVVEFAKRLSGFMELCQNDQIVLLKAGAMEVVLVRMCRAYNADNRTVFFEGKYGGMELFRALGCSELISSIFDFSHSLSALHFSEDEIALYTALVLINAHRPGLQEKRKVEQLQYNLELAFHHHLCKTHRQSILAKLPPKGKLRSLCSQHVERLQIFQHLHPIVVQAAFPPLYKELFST

Compound	IC50 [nM]
CCOC(=O)C1CN(Cc2ccncc2)CCN1Cc1ccc(-c2ccc(C(O)(C(F)(F)F)C(F)(F)F)cc2)cc1 (stereo not shown) [Compound 9, ethyl 1-((4′-(1,1,1,3,3,3-hexafluoro-2-hydroxypropan-2-yl)-[1,1′-biphenyl]-4-yl)methyl)-4-(pyridin-4-ylmethyl)piperazine-2-carboxylate]	< 1000
CCOC(=O)CC1CN(Cc2ccncc2)CCN1Cc1ccc(-c2ccc(C(O)(C(F)(F)F)C(F)(F)F)cc2)cc1 (stereo not shown) [Compound 10, ethyl 2-(1-((4′-(1,1,1,3,3,3-hexafluoro-2-hydroxypropan-2-yl)-[1,1′-biphenyl]-4-yl)methyl)-4-(pyridin-4-ylmethyl)piperazin-2-yl)acetate]	< 1000
CCOC(=O)CC1CN(Cc2ccc(-c3ccc(C(O)(C(F)(F)F)C(F)(F)F)cc3)cc2)CCN1Cc1ccncc1 (stereo not shown) [Compound 18, ethyl 2-(4-((4′-(1,1,1,3,3,3-hexafluoro-2-hydroxypropan-2-yl)-[1,1′-biphenyl]-4-yl)methyl)-1-(pyridin-4-ylmethyl)piperazin-2-yl)acetate]	< 1000
O=C(O)CC1CN(Cc2ccc(-c3ccc(C(O)(C(F)(F)F)C(F)(F)F)cc3)cc2)CCN1Cc1ccncc1 (stereo not shown) [Compound 21, 2-(4-((4′-(1,1,1,3,3,3-hexafluoro-2-hydroxypropan-2-yl)-[1,1′-biphenyl]-4-yl)methyl)-1-(pyridin-4-ylmethyl)piperazin-2-yl)acetic acid]	> 10000
CC(C)OC(=O)CC1CN(Cc2ccc(-c3ccc(C(O)(C(F)(F)F)C(F)(F)F)cc3)cc2)CCN1Cc1ccncc1 (stereo not shown) [Compound 30, isopropyl 2-(4-((4′-(1,1,1,3,3,3-hexafluoro-2-hydroxypropan-2-yl)-[1,1′-biphenyl]-4-yl)methyl)-1-(pyridin-4-ylmethyl)piperazin-2-yl)acetate]	< 1000
O=C(CC1CN(Cc2ccc(-c3ccc(C(O)(C(F)(F)F)C(F)(F)F)cc3)cc2)CCN1Cc1ccncc1)OCCO (stereo not shown) [Compound 31, 2-hydroxyethyl 2-(4-((4′-(1,1,1,3,3,3-hexafluoro-2-hydroxypropan-2-yl)-[1,1′-biphenyl]-4-yl)methyl)-1-(pyridin-4-ylmethyl)piperazin-2-yl)acetate]	< 1000
CCOCCOC(=O)CC1CN(Cc2ccc(-c3ccc(C(O)(C(F)(F)F)C(F)(F)F)cc3)cc2)CCN1Cc1ccncc1 (stereo not shown) [Compound 32, 2-ethoxyethyl 2-(4-((4′-(1,1,1,3,3,3-hexafluoro-2-hydroxypropan-2-yl)-[1,1′-biphenyl]-4-yl)methyl)-1-(pyridin-4-ylmethyl)piperazin-2-yl)acetate]	< 1000
CCOC(=O)C[C@@H]1CN(Cc2ccc(-c3ccc(C(O)(C(F)(F)F)C(F)(F)F)cc3)cc2)CCN1Cc1ccncc1 [Compound 49, ethyl (R)-2-(4-((4′-(1,1,1,3,3,3-hexafluoro-2-hydroxypropan-2-yl)-[1,1′-biphenyl]-4-yl)methyl)-1-(pyridin-4-ylmethyl)piperazin-2-yl)acetate]	< 1000

Continued, values first:

IC50 [nM]	Compound
< 1000	CCOC(=O)C1CN(Cc2ccc(-c3ccc(C(O)(C(F)(F)F)C(F)(F)F)cc3)cc2)CCN1Cc1ccncc1 (stereo not shown) [Compound 17, ethyl 4-((4′-(1,1,1,3,3,3-hexafluoro-2-hydroxypropan-2-yl)-[1,1′-biphenyl]-4-yl)methyl)-1-(pyridin-4-ylmethyl)piperazine-2-carboxylate]
> 10000	O=C(O)C1CN(Cc2ccc(-c3ccc(C(O)(C(F)(F)F)C(F)(F)F)cc3)cc2)CCN1Cc1ccncc1 (stereo not shown) [Compound 20, 4-((4′-(1,1,1,3,3,3-hexafluoro-2-hydroxypropan-2-yl)-[1,1′-biphenyl]-4-yl)methyl)-1-(pyridin-4-ylmethyl)piperazine-2-carboxylic acid]
> 10000	CC(C)NC(=O)C1CN(Cc2ccncc2)CCN1Cc1ccc(-c2ccc(C(O)(C(F)(F)F)C(F)(F)F)cc2)cc1 (stereo not shown) [Compound 24, 1-((4′-(1,1,1,3,3,3-hexafluoro-2-hydroxypropan-2-yl)-[1,1′-biphenyl]-4-yl)methyl)-N-isopropyl-4-(pyridin-4-ylmethyl)piperazine-2-carboxamide]
< 1000	CCOC(=O)CC1CN(Cc2ccc(-c3ccc(C(O)(C(F)(F)F)C(F)(F)F)cc3)c(C)c2)CCN1Cc1ccncc1 (stereo not shown) [Compound 35, ethyl 2-(4-((4′-(1,1,1,3,3,3-hexafluoro-2-hydroxypropan-2-yl)-2-methyl-[1,1′-biphenyl]-4-yl)methyl)-1-(pyridin-4-ylmethyl)piperazin-2-yl)acetate]
< 1000	CCOCCOC(=O)C[C@H]1CN(Cc2ccc(-c3ccc(C(O)(C(F)(F)F)C(F)(F)F)cc3)cc2)CCN1Cc1ccncc1 [Compound 51, 2-ethoxyethyl (S)-2-(4-((4′-(1,1,1,3,3,3-hexafluoro-2-hydroxypropan-2-yl)-[1,1′-biphenyl]-4-yl)methyl)-1-(pyridin-4-ylmethyl)piperazin-2-yl)acetate]

Test system: IMQ-induced psoriasis
Test: not given
Details: topical pre-treatment daily for 5 days, 4 hours before IMQ

Compound	ear and back skin thickness	histopathology scoring	total psoriasis score
C[C@H]1C[C@H]2[C@@H]3CCC4=CC(=O)C=C[C@]4(C)[C@@]3(F)[C@@H](O)C[C@]2(C)[C@@]1(O)C(=O)CCl [clobetasol]	significantly decreased	significantly decreased	significantly decreased
